We go through 31 compounds from US6787569B1, “Therapeutic guanidines” (Cambridge NeuroScience, Inc., priority 1994, dated 2004).

A word on the melting point: it is the temperature of the solid-liquid transition. Usually IC50 stands for the midpoint of a concentration-inhibition curve.

Series [1] deals with veratridine-induced 3H-glutamate release from brain nerve terminals (voltage-activated presynaptic Na channels). The experiment in a line: Inhibition of veratridine-induced 3H-glutamate release, rapid superfusion of synaptosomes. Conditions: 50 μM veratridine-induced release, rat brain synaptosomes; for % Inhibition of ^3H-Glu Rel @ 1 μM (*veratridine-induced glutamate release assay): 1 μM compound; for % Inhibition of ^3H-Glu Rel @ 3 μM (*veratridine-induced glutamate release assay): 3 μM compound. Type of series: biochemical, rat.

For series [2], the system named is depolarization-induced 3H-glutamate release from brain nerve terminals. The series can be described thus: Inhibition of 3H-glutamate release, high [K+] depolarization, rapid superfusion of synaptosomes. Type of series: biochemical. The conditions noted are these: rat brain synaptosomes; for % Inhibition of ^3H-Glu Rel @ 3 μM: 3 μM compound; for % Inhibition of ^3H-Glu Rel @ 1 μM: 1 μM compound; for % Inhibition of ^3H-Glu Rel @ 0.3 μM: 0.3 μM compound.

Series [3] concerns the target Type II neuronal voltage-activated sodium channels (Rattus norvegicus, UniProt P04775). The series can be described thus: cell-based.
In series [4] the test system is audiogenic seizures in DBA/2 mice. The series can be described thus: In vivo anticonvulsant activity in the DBA/2 mouse model (audiogenic seizures). Conditions: 30 minutes prior to auditory stimulus. As for the experimental part:
Compounds were tested for their effectiveness in preventing seizures in DBA/2 mice which have a unique sensitivity to auditory stimulation. Exposure to loud high-frequency sounds can trigger seizure activity in these animals. This sensitivity develops from postnatal day 12 and peaks around day 21 and slowly diminishes as the animals mature. The unusual response to auditory stimulation in this strain of mouse is believed to be due to a combination of early myelination (causing an unusually low excitatory threshold) and delayed development of inhibitory mechanisms. Glutamate, the predominant excitatory neurotransmitter, has been implicated in this response. Blockade of glutamate receptors of the NMDA and AMPA subtypes, prevents audiogenic seizures in these mice. Compounds that block the release of glutamate should similarly act to prevent seizure activity, and may be therapeutic in other neurologic disorders such as stroke, which also involves glutamate-mediated damage.
Mice were injected intraperitoneally with the compound specified in Table V below or with vehicle control, 30 minutes prior to being placed in a bell jar and turning on the auditory stimulus (12 KHz sine wave at 110-120 db). Administered doses are specified in Table V as milligram of compound per kilogram bodyweight of mouse. The auditory stimulus was left on for 60 seconds and mice reactions were timed and recorded.
Percentage inhibition was determined with reference to vehicle controls.

The mark [5] stands for this setting: veratridine (100 μM)-induced, tetrodotoxin-sensitive uptake, CHO cells expressing rat brain Type II Na channels, read-out: IC50, block of ^14C guanidinium uptake.

Where a name gives a salt, the structure may show the parent alone. Read-outs that look alike come from different tables or passages of the source.

Sequence of Type II neuronal voltage-activated sodium channels (P04775 whole entry): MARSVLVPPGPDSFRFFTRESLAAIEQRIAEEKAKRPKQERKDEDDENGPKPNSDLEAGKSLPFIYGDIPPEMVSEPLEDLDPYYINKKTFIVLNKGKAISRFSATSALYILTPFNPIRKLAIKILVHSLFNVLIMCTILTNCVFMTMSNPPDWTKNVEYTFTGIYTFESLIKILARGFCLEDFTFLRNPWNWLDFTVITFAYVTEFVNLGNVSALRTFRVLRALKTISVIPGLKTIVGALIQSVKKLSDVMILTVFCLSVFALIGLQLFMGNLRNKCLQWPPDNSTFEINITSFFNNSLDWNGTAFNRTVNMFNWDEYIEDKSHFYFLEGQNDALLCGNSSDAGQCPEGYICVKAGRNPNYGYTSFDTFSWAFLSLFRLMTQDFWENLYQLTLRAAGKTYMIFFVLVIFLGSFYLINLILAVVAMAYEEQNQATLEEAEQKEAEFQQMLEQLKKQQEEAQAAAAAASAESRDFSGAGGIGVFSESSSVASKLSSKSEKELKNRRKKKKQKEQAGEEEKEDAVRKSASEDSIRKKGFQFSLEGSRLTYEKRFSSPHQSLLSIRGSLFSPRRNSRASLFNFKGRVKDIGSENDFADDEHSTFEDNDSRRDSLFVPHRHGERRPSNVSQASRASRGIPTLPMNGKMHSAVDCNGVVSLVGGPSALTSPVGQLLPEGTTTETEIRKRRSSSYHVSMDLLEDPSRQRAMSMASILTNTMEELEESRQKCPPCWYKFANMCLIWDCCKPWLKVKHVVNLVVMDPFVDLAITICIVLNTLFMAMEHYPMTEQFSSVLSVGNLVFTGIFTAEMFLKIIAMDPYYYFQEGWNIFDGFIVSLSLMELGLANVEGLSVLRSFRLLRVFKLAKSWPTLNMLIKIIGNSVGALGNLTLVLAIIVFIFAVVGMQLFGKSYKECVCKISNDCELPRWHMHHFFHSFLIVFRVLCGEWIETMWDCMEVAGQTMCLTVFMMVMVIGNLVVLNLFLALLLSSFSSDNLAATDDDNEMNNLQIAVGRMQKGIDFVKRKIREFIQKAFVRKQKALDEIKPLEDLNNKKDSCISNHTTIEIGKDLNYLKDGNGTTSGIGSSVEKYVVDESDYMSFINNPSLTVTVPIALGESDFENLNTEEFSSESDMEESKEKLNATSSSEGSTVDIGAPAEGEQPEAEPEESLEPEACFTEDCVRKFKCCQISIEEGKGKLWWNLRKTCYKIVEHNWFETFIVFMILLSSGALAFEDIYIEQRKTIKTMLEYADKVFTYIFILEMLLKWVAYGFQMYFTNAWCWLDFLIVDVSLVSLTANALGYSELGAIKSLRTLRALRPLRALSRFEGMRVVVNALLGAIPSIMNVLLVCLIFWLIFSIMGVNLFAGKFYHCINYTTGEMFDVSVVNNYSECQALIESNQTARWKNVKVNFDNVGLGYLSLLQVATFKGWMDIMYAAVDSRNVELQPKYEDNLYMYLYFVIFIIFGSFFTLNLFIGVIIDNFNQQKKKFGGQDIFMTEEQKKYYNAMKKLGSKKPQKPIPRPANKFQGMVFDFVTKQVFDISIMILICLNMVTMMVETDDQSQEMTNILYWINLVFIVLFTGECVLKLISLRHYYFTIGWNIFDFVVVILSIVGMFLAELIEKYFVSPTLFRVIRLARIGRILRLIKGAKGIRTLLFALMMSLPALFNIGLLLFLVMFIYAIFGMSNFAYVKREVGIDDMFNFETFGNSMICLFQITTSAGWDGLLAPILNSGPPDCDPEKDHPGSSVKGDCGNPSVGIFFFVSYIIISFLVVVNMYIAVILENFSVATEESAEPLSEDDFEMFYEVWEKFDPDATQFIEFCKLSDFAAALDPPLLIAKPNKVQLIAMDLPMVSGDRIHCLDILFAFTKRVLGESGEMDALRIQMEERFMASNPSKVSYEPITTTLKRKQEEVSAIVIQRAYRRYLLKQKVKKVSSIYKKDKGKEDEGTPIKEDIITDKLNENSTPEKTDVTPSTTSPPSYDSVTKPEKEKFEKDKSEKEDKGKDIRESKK

The compound `CCC(C)c1ccc(N2CCCN(c3ccc(C(C)CC)cc3)C2=N)cc1` (stereo not drawn) (as salt: HBr) [Example 8, N,N′-Bis-(4-sec-butylphenyl)-2-iminopyrimidazolidine.HBr] returned a melting point of over 250 °C.

Regarding `CCC(C)c1ccc(NC(=N)N(C)c2ccc(C(C)CC)cc2)cc1.Cl` (stereo not drawn) [Example 5, N,N′-bis(4-sec-Butylphenyl)-N-methyl guanidine.HCl], in series [1], the “% Inhibition of ^3H-Glu Rel @ 1 μM (*veratridine-induced glutamate release assay)” value is 68* %.

For the compound `CCC(C)c1ccc(N2CCCN(c3ccc(C(C)CC)cc3)C2=N)cc1` (stereo not drawn) [Example 8, N,N′-Bis-(4-sec-butylphenyl)-2-iminopyrimidazolidine.HBr], the “% Inhibition of ^3H-Glu Rel @ 3 μM” value in series [2] turned out to be 50%. Besides, the IC50 in series [3] turned out to be 200 nM. Further, the “Audiogenic Response % Inhib.” value is given as 41% in series [4] (2 mg/kg intraperitoneally) and 75% in series [4] (4 mg/kg intraperitoneally).

`N=C(N=Cc1cccc2ccccc12)Nc1ccc2c3c(cccc13)CC2` [Example 10, N-(5-Acenaphthyl)-N′-[(1-naphthyl)-methylene]guanidine.CH3SO3H]: in series [1], the “% Inhibition of ^3H-Glu Rel @ 1 μM (*veratridine-induced glutamate release assay)” value is 24* % and the “% Inhibition of ^3H-Glu Rel @ 3 μM (*veratridine-induced glutamate release assay)” value is 71* %.

On to `CC(C)c1ccc(NC(=N)Nc2ccc3ccccc3c2)cc1` [Example 11, N-(2-Naphthyl)-N′-(4-isopropylphenyl)guanidine.HCl], for which the IC50 in series [3] (setting [5]) is 900 nM.

On to `N=C(Nc1ccc2c(c1)Cc1ccccc1-2)Nc1ccc2c(c1)Cc1ccccc1-2` [Example 12, N,N′-Bis(2-fluorenyl)guanidine.HBr], for which, in series [3] (setting [5]), the 50% inhibitory concentration (IC50) was found to be 1500 nM.

As to `CC(C)(C)c1ccc(NC(=N)Nc2ccc(Cl)c(Cl)c2Cl)cc1.Cl` [Example 14, N-(4-tert-Butylphenyl)-N′-(2,3,4-trichlorophenyl)guanidine.HCl], the “% Inhibition of ^3H-Glu Rel @ 3 μM” value in series [2] was determined as 63%. Besides, the IC50 in series [3] (setting [5]) turned out to be 1800 nM.

Take `N=C(Nc1ccc2ccccc2c1)NC1C2CC3CC(C2)CC1C3` (stereo not drawn) [Example 16, N-(2-Naphthyl)-N′-(2-adamantyl)guanidine.HCl]: the IC50 in series [3] (setting [5]) is 500 nM.

Turning to `CC(C)c1ccc(CN(C(=N)N)c2ccc(C3CCCCC3)cc2)cc1` [Example 20, N-(4-Cyclohexylphenyl)-N-(4-isopropylbenzyl)guanidine.HCl], the IC50 in series [3] (setting [5]) came to 900 nM.

With `CC(C)(C)c1ccc(CN(C(=N)N)c2ccc(C3CCCCC3)cc2)cc1` [Example 21, N-(4-Cyclohexylphenyl)-N-(4-tert-butylbenzyl)guanidine.HCl], the IC50 in series [3] (setting [5]) was 1900 nM.

Turning to `CC(C)(C)c1ccc(CN(C(=N)N)c2ccc3c(c2)Cc2ccccc2-3)cc1` [Example 22, N-(2-Fluorenyl)-N-(4-tert-butylbenzyl)guanidine.HCl], the IC50 in series [3] (setting [5]) came to 500 nM.

In the case of `CCC(C)c1ccc(N(C/C=C/c2ccccc2)C(=N)N)cc1.Cl` (stereo not drawn) [Example 23, N-(4-sec-Butylphenyl)-N-(trans-cinnamyl)guanidine.HCl], the “% Inhibition of ^3H-Glu Rel @ 3 μM (*veratridine-induced glutamate release assay)” value in series [1] was 33* %.

For the compound `CCCCOc1ccc(N(Cc2ccc(C(C)(C)C)cc2)C(=N)N)cc1.Cl` [Example 24, N-(4-n-Butoxyphenyl)-N-(4-tert-butylbenzyl)guanidine.HCl], in series [1], the “% Inhibition of ^3H-Glu Rel @ 1 μM (*veratridine-induced glutamate release assay)” value is recorded as 62* %. For the same compound, the IC50 in series [3] (setting [5]) is 1800 nM.

With `CC(C)(C)c1ccc(CN(C(=N)N)c2ccc3c(c2)CCC3)cc1` [Example 26, N-(5-Indanyl)-N-(4-tert-butylbenzyl)guanidine.HCl], in series [3] (setting [5]), the IC50 is 700 nM.

As for `CC(C)(C)c1ccc(CN(C(=N)N)c2cccc(OC(F)(F)F)c2)cc1.Cl` [Example 27, N-(3-Trifluoromethoxyphenyl)-N-(4-tert-butylbenzyl)guanidine.HCl], the “% Inhibition of ^3H-Glu Rel @ 1 μM” value in series [2] worked out at 24%. Also, in series [3] (setting [5]), the IC50 turned out to be 1200 nM.

With `CCCCc1ccc(NC(=N)Nc2ccc(CCCC)cc2)cc1.CS(=O)(=O)O` [Example 37, N,N′-Bis(4-n-butylphenyl)guanidine.mesylate], the “% Inhibition of ^3H-Glu Rel @ 0.3 μM” value in series [2] amounted to 57%. For the same compound, the “% Inhibition of ^3H-Glu Rel @ 1 μM” value in series [2] was determined as 100%. The “Audiogenic Response % Inhib.” value in series [4] (25 mg/kg intraperitoneally) was 82%; in series [4] (40 mg/kg intraperitoneally), 92%.

As for `Cl.N=C(Nc1ccc(OCc2ccccc2)cc1)Nc1cccc(OCc2ccccc2)c1` [Example 42, N-(3-Benzyloxyphenyl)-N′-(4-benzyloxyphenyl)guanidine.HCl], in series [2], the “% Inhibition of ^3H-Glu Rel @ 0.3 μM” value was determined as 54% and the “% Inhibition of ^3H-Glu Rel @ 1 μM” value is 90%. For the same compound, in series [1], the “% Inhibition of ^3H-Glu Rel @ 3 μM (*veratridine-induced glutamate release assay)” value is listed as 60* %. Moreover, the half-inhibitory concentration (IC50) in series [3] (setting [5]) was 700 nM.

On to `Cl.N=C(NCCCc1ccccc1)Nc1ccc2c3c(cccc13)CC2` [Example 43, N-(5-Acenaphthyl)-N′-(3-phenylpropyl)guanidine.HCl], for which the “% Inhibition of ^3H-Glu Rel @ 3 μM” value in series [2] was 60%. In series [1], the “% Inhibition of ^3H-Glu Rel @ 1 μM (*veratridine-induced glutamate release assay)” value was 43* %.

With `CC(CNC(=N)Nc1ccc2c3c(cccc13)CC2)c1ccccc1.Cl` (stereo not drawn) [Example 44, N-(5-Acenaphthyl)-N′-(2-methyl-2-phenylethyl)guanidine.HCl], in series [1], the “% Inhibition of ^3H-Glu Rel @ 1 μM (*veratridine-induced glutamate release assay)” value was 43* % and the “% Inhibition of ^3H-Glu Rel @ 3 μM (*veratridine-induced glutamate release assay)” value was 71* %.

As to `CC(C)(C)c1ccc(CN(C(=N)N)c2cccc(I)c2)cc1` [Example 48, N-(3-Iodophenyl)-N-(4-tert-butylbenzyl)guanidine.HCl], the “% Inhibition of ^3H-Glu Rel @ 1 μM (*veratridine-induced glutamate release assay)” value in series [1] is listed as 23* %. Half-maximal inhibition in series [3] (IC50) required 400 nM.

On to `CC(C)(C)c1ccc(CN(C(=N)N)c2ccc(Cl)c3ccccc23)cc1` [Example 49, N-(4-Chloro-1-naphthyl)-N-(4-tert-benzyl)guanidine.HCl], for which the “% Inhibition of ^3H-Glu Rel @ 1 μM (*veratridine-induced glutamate release assay)” value in series [1] was 32* %. The same compound registered an IC50 in series [3] of 2200 nM.

With `CCC(C)c1ccc(N(Cc2ccc(C(C)(C)C)cc2)C(=N)NN2CCSCC2)cc1.Cl` (stereo not drawn) [Example 73, N-(4-sec-Butylphenyl)-N-(4-t-butylbenzyl)-N′-(4-thiomorpholinyl)guanidine.HCl], the “% Inhibition of ^3H-Glu Rel @ 1 μM” value in series [2] is recorded as 59%. In addition, the “Audiogenic Response % Inhib.” value in series [4] (20 mg/kg intraperitoneally) is 23%; in series [4] (40 mg/kg intraperitoneally), 89%.

As for `CC(C)(C)c1ccc(CN(C(=N)NN2CCOCC2)c2ccc(OCc3ccccc3)cc2)cc1.Cl` [Example 79, N-(4-Benzyloxyphenyl)-N-(4-tert-butylbenzyl)-N′-(4-morpholinyl)guanidine.HCl], in series [2], the “% Inhibition of ^3H-Glu Rel @ 0.3 μM” value is reported as 77%. Also, the “Audiogenic Response % Inhib.” value in series [4] (20 mg/kg intraperitoneally) was found to be 41%; in series [4] (40 mg/kg intraperitoneally), 68%.

Consider `CCCCc1ccc(NC(=N)Nc2ccc(OCc3ccccc3)cc2)cc1.Cl` [Example 104, N-(4-Benzyloxyphenyl)-N′-(4-butylphenyl)guanidine.HCl], for which, in series [2], the “% Inhibition of ^3H-Glu Rel @ 0.3 μM” value is 76%. In addition, the entries for the “Audiogenic Response % Inhib.” value in series [4] (20 mg/kg intraperitoneally) and in series [4] (40 mg/kg intraperitoneally) were 40% and 90%, respectively.

Consider `CC(C)(C)c1ccc(NC(=N)Nc2cccc(COCc3ccccc3)c2)cc1.CS(=O)(=O)O` [Example 106, N-3-(Benzyloxymethyl)phenyl-N′-(4-tert-butylphenyl)guanidine.mesylate], for which the “% Inhibition of ^3H-Glu Rel @ 0.3 μM” value in series [2] is 48%. Besides, the “Audiogenic Response % Inhib.” value in series [4] (40 mg/kg intraperitoneally) is reported as 93%.

Consider `CC(C)(C)c1ccc(NC(=N)Nc2cccc(OCc3ccccc3)c2)cc1.CS(=O)(=O)O` [Example 108, N-(3-Benzyloxy)phenyl-N′-(4-tert-butylphenyl)guanidine.mesylate], for which the “% Inhibition of ^3H-Glu Rel @ 0.3 μM” value in series [2] is on record as 49%. For the same compound, the “Audiogenic Response % Inhib.” value in series [4] (40 mg/kg intraperitoneally) came to 80%.

On to `CCCCc1ccc(NC(=N)N(C)c2ccc(OCc3ccccc3)cc2)cc1.CS(=O)(=O)O` [Example 110, N-(4-Benzyloxyphenyl)-N-methyl-N′-(4-butylphenyl)guanidine.mesylate], for which the “% Inhibition of ^3H-Glu Rel @ 0.3 μM” value in series [2] was 77%. Also, the “Audiogenic Response % Inhib.” value is on record as 42.3% in series [4] (20 mg/kg intraperitoneally) and 92.5% in series [4] (40 mg/kg intraperitoneally).

For `Br.CCCCOc1ccc(NC(=N)Nc2ccc(OCCCC)cc2)cc1` [Example 137, N,N′-Bis(4-butoxyphenyl)guanidine.HBr], the entries for the “Audiogenic Response % Inhib.” value in series [4] (20 mg/kg intraperitoneally) and in series [4] (40 mg/kg intraperitoneally) were 60% and 82%, respectively.

In the case of `N=C(Nc1ccc(OCc2ccccc2)cc1)Nc1ccc(Oc2ccccc2)cc1` [N-(4-benzyloxyphenyl)-N′-(4-phenoxyphenyl)guanidine], the “Audiogenic Response % Inhib.” value stood at 16% in series [4] (20 mg/kg intraperitoneally) and 93% in series [4] (40 mg/kg intraperitoneally).

For “N-(4-sec-Butylphenyl)-N-(4-t-butylbenzyl)-N′-pyrrolidinylguanidine.HCl [Example 72]”, the “% Inhibition of ^3H-Glu Rel @ 0.3 μM” value in series [2] is reported as 48%. Moreover, the results for the “Audiogenic Response % Inhib.” value in series [4] (20 mg/kg intraperitoneally) and in series [4] (40 mg/kg intraperitoneally) were 52% and 81%, respectively.

As for “N-(5-Acenaphthyl)-N′-(indolinyl)guanidine.mesylate [Example 29]”, the figures for the “Audiogenic Response % Inhib.” value in series [4] (20 mg/kg intraperitoneally) and in series [4] (40 mg/kg intraperitoneally) were 42% and 81%, respectively.
